We go through 8 molecules from patent US5489613A, “Carbacyclin derivatives, process for their preparation and compositions containing them” (priority 1983, dated 1996).

≈ marks a conversion by molar mass, not a printed value.

Holding throughout (type): cell-based
Assay [1] concerns platelet aggregation (platelet-rich plasma). In words: Inhibition of platelet aggregation (ADP-induced), Born's turbidimetric method, human blood. As to conditions: 2 min, read-out: Concentration (ng/ml) for 50% inhibition, human blood. The method, then: (§1) Platelet aggregation was determined by the following means: 0.05 ml of a test liquid (containing, in various concentrations, the compound whose inhibitory effect was to be tested) was added to 1 ml of this platelet-rich plasma; two minutes after the addition, 0.2 ml of a liquid containing adenosine diphosphate at a concentration of 5 μM was added; the increase in light transmission at 600 nm was determined by means of a platelet aggregometer manufactured by Bryston Co. Limited.

The test system is the same in assay [2]. In words: Inhibition of platelet aggregation (ADP-induced), Born's turbidimetric method, rabbit blood. The note with it: Oryctolagus cuniculus, 2 min, read-out: Concentration (ng/ml) for 50% inhibition, rabbit blood. The protocol: as §1
Another assay has as its system blood platelets. The assay is described as follows: Inhibition of aggregation of blood platelets (thrombocyte agglutination), stated in words.
Setting [3] is: human platelet-rich plasma, adenosine diphosphate 5 μM, 2 min after addition of test liquid, 600 nm.
The mark [4] stands for this setting: rabbit platelet-rich plasma, adenosine diphosphate 5 μM, 2 min after addition of test liquid, 600 nm.

Consider `C=CCCCC(C)[C@H](O)/C=C/[C@@H]1[C@H]2CC(CCCCC(=O)O)=C[C@H]2C[C@H]1O` (stereo partly drawn) [Compound 60, 3-(4-Carboxybutyl)-6β-(3α-hydroxy-4-methylnona-1,8-dienyl)-7α-hydroxy-cis-bicyclo[3,3,0]oct-2-ene], for which the IC50 in assay [1] (setting [3]) came to 1.8 ng/mL (≈ 4.78 nM); in assay [2] (setting [4]), 1.1 ng/mL (≈ 2.92 nM).
In the same order, the values of `CC#CCC(C)[C@H](O)/C=C/[C@@H]1[C@H]2CC(CCCCC(=O)O)=C[C@H]2C[C@H]1O` (stereo partly drawn) [Compound 85, 3-(4-Carboxybutyl)-6β-(3α-hydroxy-4-methyloct-1-en-6-ynyl)-7α-hydroxy-cis-bicyclo[3,3,0]oct-2-ene] are 0.4 ng/mL (≈ 1.11 nM) and 3.6 ng/mL (≈ 9.99 nM).
On the same counts, the results for `O=C(O)CCCCC1=C[C@H]2C[C@@H](O)[C@H](/C=C/[C@@H](O)C3CCCC3)[C@H]2C1` [Compound 90, 3-(4-Carboxybutyl)-6β-(3α-hydroxy-3-cyclopentylprop-1-enyl)-7α-hydroxy-cis-bicyclo[3,3,0]oct-2-ene] are 0.5 ng/mL (≈ 1.43 nM) and 3.7 ng/mL (≈ 10.6 nM).
For `O=C(O)CCCCC1=C[C@H]2C[C@@H](O)[C@H](/C=C/[C@@H](O)C3CCCCC3)[C@H]2C1` [Compound 98, 3-(4-Carboxybutyl)-6β-(3α-hydroxy-3-cyclohexylprop-1-enyl)-7α-hydroxy-cis-bicyclo[3,3,0]oct-2-ene], the IC50 came to 0.9 ng/mL (≈ 2.48 nM) in assay [1] (setting [3]) and 3.3 ng/mL (≈ 9.1 nM) in assay [2] (setting [4]).
Turning to `O=C(O)CCCCC1=C[C@H]2C[C@@H](O)[C@H](/C=C/[C@@H](O)CC3CCCC3)[C@H]2C1` [Compound 100, 3-(4-Carboxybutyl)-6β-(3α-hydroxy-4-cyclopentylbut-1-enyl)-7α-hydroxy-cis-bicyclo[3,3,0]oct-2-ene], the IC50 in assay [1] (setting [3]) turned out to be 1.1 ng/mL (≈ 3.03 nM).
Turning to `CCCCC[C@H](O)/C=C/[C@H]1[C@H](O)CC(=O)[C@@H]1CCCCCCC(=O)O` [Compound A, PGE1, reference compound], the IC50 worked out at 9.3 ng/mL (≈ 26.2 nM) in assay [1] (setting [3]) and 36 ng/mL (≈ 102 nM) in assay [2] (setting [4]).
Take `CCCCC[C@H](O)/C=C/[C@@H]1[C@H]2C/C(=C/CCCC(=O)O)C[C@H]2C[C@H]1O` [Compound B, carbacyclin]: the IC50 in assay [1] (Homo sapiens, Platelet) came out at 13.3 ng/mL (≈ 37.9 nM); in assay [2] (Platelet), 36 ng/mL (≈ 103 nM).
For the molecule `CCCCC[C@H](O)/C=C/[C@@H]1[C@H]2CC(CCCCC(=O)O)=C[C@H]2C[C@H]1O` [Compound C, reference compound], the IC50 was determined as 3.6 ng/mL (≈ 10.3 nM) in assay [1] (setting [3]) and 5.9 ng/mL (≈ 16.8 nM) in assay [2] (setting [4]). Further, in the assay with blood platelets, the “ability to inhibit aggregation of blood platelets” value is “has the ability to inhibit aggregation blood platelets”.
